{"source": "the supplement of paper PMC10307832", "test_in_all_cases": "relative viability (nuclei count vs DMSO), 5 days (fraction); higher = more cells survive", "key": {"ABC-1": {"system": "ABC-1", "in_short": "(§1)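 For relative viability, nuclei counts in treated wells were divided by those in vehicle wells. Lung cancer cell lines had been pin-tool dosed in 1536-well plates the day after seeding and cultured for 5 days, then fixed and stained in one step (final 0.05% Triton X-100, 1% formaldehyde, 1 ug/ml Hoechst) and imaged at 4×. Doses were one drug alone or a fixed anchor-drug dose plus five library-drug doses (not always all listed) in √10 steps, and values are duplicate-plate medians.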"}, "BEN": {"system": "BEN", "in_short": "as §1"}, "EPLC-272H": {"system": "EPLC-272H", "in_short": "as §1"}, "HCC-827": {"system": "HCC-827", "in_short": "as §1"}, "HOP-62": {"system": "HOP-62", "in_short": "as §1"}, "LU99A": {"system": "LU99A", "in_short": "as §1"}, "NCI-H1355": {"system": "NCI-H1355", "in_short": "as §1"}, "NCI-H1666": {"system": "NCI-H1666", "in_short": "as §1"}, "NCI-H1975": {"system": "NCI-H1975", "in_short": "as §1"}, "NCI-H2170": {"system": "NCI-H2170", "in_short": "as §1"}, "NCI-H23": {"system": "NCI-H23", "in_short": "as §1"}, "NCI-H2405": {"system": "NCI-H2405", "in_short": "as §1"}, "NCI-H3122": {"system": "NCI-H3122", "in_short": "as §1"}, "NCI-H322M": {"system": "NCI-H322M", "in_short": "as §1"}, "NCI-H358": {"system": "NCI-H358", "in_short": "as §1"}, "NCI-H520": {"system": "NCI-H520", "in_short": "as §1"}, "NCI-H596": {"system": "NCI-H596", "in_short": "as §1"}, "NCI-H647": {"system": "NCI-H647", "in_short": "as §1"}, "NCI-H727": {"system": "NCI-H727", "in_short": "as §1"}, "NCI-H838": {"system": "NCI-H838", "in_short": "as §1"}, "PC-14": {"system": "PC-14", "in_short": "as §1"}, "UMC-11": {"system": "UMC-11", "in_short": "as §1"}}, "data": [{"molecule": "Cc1cnc(-c2cnc(NCCNc3ccc(C#N)cn3)nc2-c2ccc(Cl)cc2Cl)[nH]1", "note": "+ O=C(CCCCCCC(=O)Nc1ccccc1)NO [Vorinostat] (partner 1 µM)", "values": [{"measurement": "relative viability", "setting": "ABC-1; first compound 0.08 µM", "value": 1.24}, {"measurement": "relative viability", "setting": "ABC-1; first compound 0.253 µM", "value": 0.871}, {"measurement": "relative viability", "setting": "ABC-1; first compound 0.8 µM", "value": 1.06}, {"measurement": "relative viability", "setting": "ABC-1; first compound 2.53 µM", "value": 1.15}, {"measurement": "relative viability", "setting": "BEN; first compound 0.08 µM", "value": 0.575}, {"measurement": "relative viability", "setting": "BEN; first compound 0.253 µM", "value": 0.559}, {"measurement": "relative viability", "setting": "BEN; first compound 0.8 µM", "value": 0.595}, {"measurement": "relative viability", "setting": "BEN; first compound 2.53 µM", "value": 0.559}, {"measurement": "relative viability", "setting": "EPLC-272H; first compound 0.08 µM", "value": 0.658}, {"measurement": "relative viability", "setting": "EPLC-272H; first compound 0.8 µM", "value": 0.531}, {"measurement": "relative viability", "setting": "EPLC-272H; first compound 2.53 µM", "value": 0.581}, {"measurement": "relative viability", "setting": "HCC-827; first compound 0.08 µM", "value": 0.85}, {"measurement": "relative viability", "setting": "HCC-827; first compound 0.253 µM", "value": 0.306}, {"measurement": "relative viability", "setting": "HCC-827; first compound 0.8 µM", "value": 0.827}, {"measurement": "relative viability", "setting": "HCC-827; first compound 2.53 µM", "value": 0.871}, {"measurement": "relative viability", "setting": "HOP-62; first compound 0.08 µM", "value": 0.733}, {"measurement": "relative viability", "setting": "HOP-62; first compound 0.8 µM", "value": 0.545}, {"measurement": "relative viability", "setting": "HOP-62; first compound 2.53 µM", "value": 0.594}, {"measurement": "relative viability", "setting": "LU99A; first compound 0.08 µM", "value": 0.592}, {"measurement": "relative viability", "setting": "LU99A; first compound 0.253 µM", "value": 0.523}, {"measurement": "relative viability", "setting": "LU99A; first compound 0.8 µM", "value": 0.535}, {"measurement": "relative viability", "setting": "LU99A; first compound 2.53 µM", "value": 0.559}, {"measurement": "relative viability", "setting": "NCI-H1355; first compound 0.08 µM", "value": 0.632}, {"measurement": "relative viability", "setting": "NCI-H1355; first compound 0.253 µM", "value": 0.544}, {"measurement": "relative viability", "setting": "NCI-H1355; first compound 0.8 µM", "value": 0.633}, {"measurement": "relative viability", "setting": "NCI-H1355; first compound 2.53 µM", "value": 0.651}, {"measurement": "relative viability", "setting": "NCI-H1666; first compound 0.08 µM", "value": 0.899}, {"measurement": "relative viability", "setting": "NCI-H1666; first compound 0.253 µM", "value": 1.05}, {"measurement": "relative viability", "setting": "NCI-H1666; first compound 0.8 µM", "value": 0.964}, {"measurement": "relative viability", "setting": "NCI-H1666; first compound 2.53 µM", "value": 1.1}, {"measurement": "relative viability", "setting": "NCI-H1975; first compound 0.08 µM", "value": 0.783}, {"measurement": "relative viability", "setting": "NCI-H1975; first compound 0.253 µM", "value": 0.699}, {"measurement": "relative viability", "setting": "NCI-H1975; first compound 0.8 µM", "value": 0.732}, {"measurement": "relative viability", "setting": "NCI-H1975; first compound 2.53 µM", "value": 0.614}, {"measurement": "relative viability", "setting": "NCI-H2170; first compound 0.08 µM", "value": 0.837}, {"measurement": "relative viability", "setting": "NCI-H2170; first compound 0.8 µM", "value": 0.734}, {"measurement": "relative viability", "setting": "NCI-H2170; first compound 2.53 µM", "value": 0.714}, {"measurement": "relative viability", "setting": "NCI-H23; first compound 0.08 µM", "value": 0.568}, {"measurement": "relative viability", "setting": "NCI-H23; first compound 0.253 µM", "value": 0.475}, {"measurement": "relative viability", "setting": "NCI-H23; first compound 0.8 µM", "value": 0.575}, {"measurement": "relative viability", "setting": "NCI-H23; first compound 2.53 µM", "value": 0.529}, {"measurement": "relative viability", "setting": "NCI-H2405; first compound 0.08 µM", "value": 1.02}, {"measurement": "relative viability", "setting": "NCI-H2405; first compound 0.253 µM", "value": 0.985}, {"measurement": "relative viability", "setting": "NCI-H2405; first compound 0.8 µM", "value": 0.909}, {"measurement": "relative viability", "setting": "NCI-H2405; first compound 2.53 µM", "value": 0.661}, {"measurement": "relative viability", "setting": "NCI-H3122; first compound 0.08 µM", "value": 0.989}, {"measurement": "relative viability", "setting": "NCI-H3122; first compound 0.8 µM", "value": 0.934}, {"measurement": "relative viability", "setting": "NCI-H3122; first compound 2.53 µM", "value": 0.951}, {"measurement": "relative viability", "setting": "NCI-H322M; first compound 0.08 µM", "value": 0.843}, {"measurement": "relative viability", "setting": "NCI-H322M; first compound 0.253 µM", "value": 0.878}, {"measurement": "relative viability", "setting": "NCI-H322M; first compound 0.8 µM", "value": 0.874}, {"measurement": "relative viability", "setting": "NCI-H322M; first compound 2.53 µM", "value": 1.53}, {"measurement": "relative viability", "setting": "NCI-H358; first compound 0.08 µM", "value": 0.787}, {"measurement": "relative viability", "setting": "NCI-H358; first compound 0.253 µM", "value": 0.686}, {"measurement": "relative viability", "setting": "NCI-H358; first compound 0.8 µM", "value": 0.69}, {"measurement": "relative viability", "setting": "NCI-H358; first compound 2.53 µM", "value": 0.585}, {"measurement": "relative viability", "setting": "NCI-H520; first compound 0.08 µM", "value": 0.814}, {"measurement": "relative viability", "setting": "NCI-H520; first compound 0.253 µM", "value": 0.678}, {"measurement": "relative viability", "setting": "NCI-H520; first compound 0.8 µM", "value": 0.725}, {"measurement": "relative viability", "setting": "NCI-H520; first compound 2.53 µM", "value": 0.772}, {"measurement": "relative viability", "setting": "NCI-H596; first compound 0.08 µM", "value": 0.544}, {"measurement": "relative viability", "setting": "NCI-H596; first compound 0.253 µM", "value": 0.568}, {"measurement": "relative viability", "setting": "NCI-H596; first compound 0.8 µM", "value": 0.501}, {"measurement": "relative viability", "setting": "NCI-H596; first compound 2.53 µM", "value": 0.688}, {"measurement": "relative viability", "setting": "NCI-H647; first compound 0.08 µM", "value": 0.609}, {"measurement": "relative viability", "setting": "NCI-H647; first compound 0.253 µM", "value": 0.399}, {"measurement": "relative viability", "setting": "NCI-H647; first compound 0.8 µM", "value": 0.743}, {"measurement": "relative viability", "setting": "NCI-H647; first compound 2.53 µM", "value": 0.357}, {"measurement": "relative viability", "setting": "NCI-H727; first compound 0.08 µM", "value": 1.18}, {"measurement": "relative viability", "setting": "NCI-H727; first compound 0.253 µM", "value": 0.787}, {"measurement": "relative viability", "setting": "NCI-H727; first compound 0.8 µM", "value": 1.02}, {"measurement": "relative viability", "setting": "NCI-H727; first compound 2.53 µM", "value": 1.23}, {"measurement": "relative viability", "setting": "NCI-H838; first compound 0.08 µM", "value": 0.726}, {"measurement": "relative viability", "setting": "NCI-H838; first compound 0.253 µM", "value": 0.723}, {"measurement": "relative viability", "setting": "NCI-H838; first compound 0.8 µM", "value": 0.856}, {"measurement": "relative viability", "setting": "NCI-H838; first compound 2.53 µM", "value": 1.06}, {"measurement": "relative viability", "setting": "PC-14; first compound 0.08 µM", "value": 0.851}, {"measurement": "relative viability", "setting": "PC-14; first compound 0.253 µM", "value": 0.603}, {"measurement": "relative viability", "setting": "PC-14; first compound 0.8 µM", "value": 0.727}, {"measurement": "relative viability", "setting": "PC-14; first compound 2.53 µM", "value": 0.587}, {"measurement": "relative viability", "setting": "UMC-11; first compound 0.08 µM", "value": 0.403}, {"measurement": "relative viability", "setting": "UMC-11; first compound 0.253 µM", "value": 0.387}, {"measurement": "relative viability", "setting": "UMC-11; first compound 0.8 µM", "value": 0.411}, {"measurement": "relative viability", "setting": "UMC-11; first compound 2.53 µM", "value": 0.511}]}]}
